Experiment: xn = mol fraction of the nth substance listed

CC(O)CO (centres undefined) + CC(C)=O
viscosity [mPa·s], 100 kPa
Conditions | x2 = 0.1 | x2 = 0.2 | x2 = 0.2998 | x2 = 0.3999 | x2 = 0.5004 | x2 = 0.5999 | x2 = 0.6999 | x2 = 0.8 | x2 = 0.9001
293.15 K | 29.94 | 14.46 | 7.145 | 3.875 | 2.363 | 1.532 | 0.934 | 0.601 | 0.4671
298.15 K | 22.95 | 11.54 | 5.918 | 3.303 | 2.066 | 1.356 | 0.8597 | 0.5688 | 0.4463
303.15 K | 17.9 | 9.34 | 4.965 | 2.882 | 1.821 | 1.201 | 0.7943 | 0.5379 | 0.4209
308.15 K | 14.19 | 7.662 | 4.208 | 2.55 | 1.614 | 1.103 | 0.7356 | 0.5208 | 0.3953
313.15 K | 11.41 | 6.362 | 3.602 | 2.189 | 1.44 | 0.9924 | 0.6822 | 0.4945 | 0.377
318.15 K | 9.297 | 5.341 | 3.109 | 1.971 | 1.298 | 0.8944 | 0.6317 | 0.4731 | 0.3691
323.15 K | 7.672 | 4.529 | 2.71 | 1.717 | 1.175 | 0.815 | 0.5813 | 0.4533 | 0.3477

ClC=C(Cl)Cl + CC(C)CCO
303.15 K, 101.3 kPa
Conditions | viscosity [mPa·s]
x1 = 0.0921 | 2.553
x1 = 0.2031 | 2.01
x1 = 0.2728 | 1.705
x1 = 0.4124 | 1.237
x1 = 0.5054 | 1.027
x1 = 0.6208 | 0.85
x1 = 0.7016 | 0.758
x1 = 0.814 | 0.666
x1 = 0.9047 | 0.597

CC(O)CO (centres undefined) + CC(C)CO
viscosity [mPa·s], 100 kPa
Conditions | x2 = 0.101 | x2 = 0.2 | x2 = 0.3 | x2 = 0.4 | x2 = 0.5 | x2 = 0.6 | x2 = 0.7 | x2 = 0.8 | x2 = 0.9
298.15 K | 29.95 | 22.5 | 16.76 | 12.73 | 9.74 | 7.778 | 6.056 | 4.843 | 3.968
303.15 K | 22.85 | 17.38 | 13.28 | 10.21 | 7.878 | 6.366 | 5.037 | 4.08 | 3.366
308.15 K | 17.8 | 13.79 | 10.5 | 8.284 | 6.476 | 5.284 | 4.197 | 3.45 | 2.869
313.15 K | 14.12 | 11.03 | 8.532 | 6.802 | 5.362 | 4.42 | 3.54 | 2.939 | 2.471
318.15 K | 11.32 | 8.884 | 6.942 | 5.599 | 4.486 | 3.744 | 3.013 | 2.533 | 2.129
323.15 K | 9.291 | 7.286 | 5.767 | 4.693 | 3.766 | 3.185 | 2.59 | 2.192 | 1.846

ClC=C(Cl)Cl + CC(C)CO
viscosity [mPa·s]
Conditions | 293.15 K | 303.15 K | 313.15 K
101.3 kPa, x1 = 0.1086 | – | 2.134 | –
101.3 kPa, x1 = 0.2127 | – | 1.627 | –
101.3 kPa, x1 = 0.3178 | – | 1.273 | –
101.3 kPa, x1 = 0.4018 | – | 1.075 | –
101.3 kPa, x1 = 0.5178 | – | 0.889 | –
101.3 kPa, x1 = 0.6042 | – | 0.795 | –
101.3 kPa, x1 = 0.7191 | – | 0.703 | –
101.3 kPa, x1 = 0.8127 | – | 0.644 | –
101.3 kPa, x1 = 0.9144 | – | 0.581 | –
101.33 kPa, x2 = 0.15 | 0.8993 | 0.7678 | 0.6502
101.33 kPa, x2 = 0.3 | 1.228 | 1.005 | 0.8284
101.33 kPa, x2 = 0.45 | 1.556 | 1.242 | 1.007
101.33 kPa, x2 = 0.6 | 1.884 | 1.478 | 1.185
101.33 kPa, x2 = 0.75 | 2.213 | 1.715 | 1.365
101.33 kPa, x2 = 0.9 | 2.541 | 1.952 | 1.542

NC1CCCCC1 + CC(C)CO
Conditions | viscosity [mPa·s]
293.15 K, 100 kPa, x2 = 0.1205 | 2.575
298.15 K, 101 kPa, x1 = 0.0767 | 3.274
298.15 K, 101 kPa, x1 = 0.1574 | 3.183
298.15 K, 101 kPa, x1 = 0.3325 | 3.067
298.15 K, 101 kPa, x1 = 0.4277 | 2.976
298.15 K, 101 kPa, x1 = 0.5285 | 2.859
298.15 K, 101 kPa, x1 = 0.6355 | 2.681
298.15 K, 101 kPa, x1 = 0.7493 | 2.447
298.15 K, 101 kPa, x1 = 0.8706 | 2.165
308.15 K, 100 kPa, x2 = 0.6492 | 2.275

ClC=C(Cl)Cl + CC(C)O
viscosity [mPa·s]
Conditions | 293.15 K | 303.15 K | 313.15 K
101.3 kPa, x1 = 0.1036 | – | 1.363 | –
101.3 kPa, x1 = 0.2204 | – | 1.053 | –
101.3 kPa, x1 = 0.3432 | – | 0.849 | –
101.3 kPa, x1 = 0.4172 | – | 0.765 | –
101.3 kPa, x1 = 0.5133 | – | 0.686 | –
101.3 kPa, x1 = 0.6024 | – | 0.641 | –
101.3 kPa, x1 = 0.7196 | – | 0.603 | –
101.3 kPa, x1 = 0.8017 | – | 0.583 | –
101.3 kPa, x1 = 0.9028 | – | 0.556 | –
101.33 kPa, x2 = 0.15 | 0.7418 | 0.6628 | 0.5527
101.33 kPa, x2 = 0.3 | 0.9127 | 0.7947 | 0.6334
101.33 kPa, x2 = 0.45 | 1.083 | 0.9265 | 0.7141
101.33 kPa, x2 = 0.6 | 1.257 | 1.058 | 0.7948
101.33 kPa, x2 = 0.75 | 1.428 | 1.19 | 0.8775
101.33 kPa, x2 = 0.9 | 1.596 | 1.322 | 0.9562

CCCCCCCCCCCCCCO + CC(C)[C@@H]1CC[C@@H](C)C[C@H]1O
100 kPa, x1 = 0.333
Conditions | viscosity [mPa·s]
293.15 K | 44.69
298.15 K | 31.86
303.15 K | 23.35
308.15 K | 17.54
313.15 K | 13.47
318.15 K | 10.53
323.15 K | 8.38

ClC=C(Cl)Cl + CCC(C)(C)O
298.15 K, 101 kPa
Conditions | viscosity [mPa·s]
x2 = 0.0494 | 0.556
x2 = 0.101 | 0.576
x2 = 0.1994 | 0.626
x2 = 0.2988 | 0.69
x2 = 0.3984 | 0.779
x2 = 0.4991 | 0.909
x2 = 0.5974 | 1.08
x2 = 0.7 | 1.353
x2 = 0.7976 | 1.723
x2 = 0.9001 | 2.365

ClC=C(Cl)Cl + CCC(C)=O
viscosity [mPa·s], 101.33 kPa
Conditions | x1 = 0.1037 | x1 = 0.1997 | x1 = 0.3082 | x1 = 0.3915 | x1 = 0.4564 | x1 = 0.5979 | x1 = 0.7166 | x1 = 0.7989 | x1 = 0.891
298.15 K | – | 0.507 | – | – | 0.557 | 0.592 | 0.612 | 0.622 | 0.63
308.15 K | 0.447 | 0.467 | 0.491 | 0.506 | 0.518 | 0.543 | 0.559 | 0.564 | 0.575
318.15 K | 0.413 | 0.434 | 0.456 | 0.471 | 0.481 | 0.504 | 0.521 | 0.531 | 0.541

NC1CCCCC1 + CCC(C)=O
298.15 K, 101 kPa
Conditions | viscosity [mPa·s]
x1 = 0.0747 | 0.5316
x1 = 0.1538 | 0.6621
x1 = 0.2376 | 0.8418
x1 = 0.3265 | 1.042
x1 = 0.421 | 1.235
x1 = 0.5217 | 1.449
x1 = 0.6291 | 1.625
x1 = 0.7441 | 1.781
x1 = 0.8674 | 1.823
x2 = 0.1326 | 1.574
x2 = 0.2559 | 1.409
x2 = 0.3708 | 1.257
x2 = 0.4783 | 1.115
x2 = 0.579 | 0.978
x2 = 0.6735 | 0.846
x2 = 0.7624 | 0.719
x2 = 0.8462 | 0.599
x2 = 0.9252 | 0.481

From the CheMixHub viscosity set
